Laboratory results as given in ChEMBL document CHEMBL1201862, “PubChem BioAssay data set” (2004).
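1) Cells in 96-well plates. 2) Compound, 48 h, 5 concentrations. 3) Linear interpolation between surrounding doses. 4) Unreached endpoint = highest concentration. GI50 marks 50% less growth.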 Active and inactive are the calls of the source. Rule as the data show it: active = GI50 up to about 1.1 µM and inactive = higher.

Columns and labels:
Test in all cases: NCI tumour cell line growth inhibition, 48 h
[1] = system: RPMI-8226
[2] = system: NCI-H460
[3] = system: OVCAR-3
[4] = system: SK-MEL-5
[5] = system: ACHN
[6] = system: HOP-92
[7] = system: LOX IMVI
[8] = system: HOP-62
[9] = system: COLO 205
[10] = system: CAKI-1
[11] = system: UACC-62
[12] = system: Malme-3M
[13] = system: SF-539
[14] = system: HCC 2998
[15] = system: PC-3
[16] = system: HL-60
[17] = system: SW-620
[18] = system: NCI-H226
[19] = system: KM12
[20] = system: SR

SMILES	GI50 [1]	GI50 [2]	GI50 [3]	GI50 [4]	GI50 [5]	GI50 [6]	GI50 [7]	GI50 [8]	GI50 [9]	GI50 [10]	GI50 [11]	GI50 [12]	GI50 [13]	GI50 [14]	GI50 [15]	GI50 [16]	GI50 [17]	GI50 [18]	GI50 [19]	GI50 [20]
C1=CC2C=CC(C=C1)P2c1ccccc1 (stereo not drawn)	> 100 µM (inactive)	> 100 µM (inactive)	> 100 µM (inactive)	> 100 µM (inactive)	> 100 µM (inactive)	> 100 µM (inactive)	> 100 µM (inactive)	> 100 µM (inactive)	> 100 µM (inactive)	> 100 µM (inactive)	> 100 µM (inactive)	> 100 µM (inactive)	> 100 µM (inactive)	0.0175 µM (active)	> 100 µM (inactive)	> 100 µM (inactive)	> 100 µM (inactive)	> 100 µM (inactive)	> 100 µM (inactive)	> 100 µM (inactive)
Oc1ccccc1/C=N/Nc1nc(N/N=C/c2ccccc2O)nc(N/N=C/c2ccccc2O)n1	–	44.8 µM (inactive)	29.2 µM (inactive)	> 100 µM (inactive)	69.7 µM (inactive)	21.1 µM (inactive)	> 100 µM (inactive)	44.6 µM (inactive)	> 100 µM (inactive)	> 100 µM (inactive)	51.1 µM (inactive)	> 100 µM (inactive)	> 100 µM (inactive)	> 100 µM (inactive)	78.2 µM (inactive)	> 100 µM (inactive)	> 100 µM (inactive)	58.7 µM (inactive)	> 100 µM (inactive)	> 100 µM (inactive)
Cc1ccc2c(c1)C(=C(C#N)C#N)CCCS2(=O)=O	> 100 µM (inactive)	> 100 µM (inactive)	> 100 µM (inactive)	–	> 100 µM (inactive)	> 100 µM (inactive)	> 100 µM (inactive)	> 100 µM (inactive)	> 100 µM (inactive)	> 100 µM (inactive)	> 100 µM (inactive)	–	> 100 µM (inactive)	> 100 µM (inactive)	> 100 µM (inactive)	> 100 µM (inactive)	> 100 µM (inactive)	> 100 µM (inactive)	> 100 µM (inactive)	> 100 µM (inactive)
O=C(/C(=C/c1cccs1)c1ccccc1)c1ccccc1	> 100 µM (inactive)	> 100 µM (inactive)	> 100 µM (inactive)	> 100 µM (inactive)	39.4 µM (inactive)	> 100 µM (inactive)	> 100 µM (inactive)	7.21 µM (inactive)	> 100 µM (inactive)	> 100 µM (inactive)	> 100 µM (inactive)	–	17.5 µM (inactive)	> 100 µM (inactive)	25.6 µM (inactive)	47.4 µM (inactive)	> 100 µM (inactive)	> 100 µM (inactive)	> 100 µM (inactive)	34.3 µM (inactive)
Cc1nc(Nc2ccccc2Cl)sc1C(=O)CC(=O)C(=O)Nc1c(Cl)cccc1Cl	28.2 µM (inactive)	34.5 µM (inactive)	17.4 µM (inactive)	31.7 µM (inactive)	45 µM (inactive)	20.6 µM (inactive)	27.4 µM (inactive)	22.8 µM (inactive)	18.6 µM (inactive)	84.1 µM (inactive)	45.6 µM (inactive)	–	26.9 µM (inactive)	39.5 µM (inactive)	27.3 µM (inactive)	8.95 µM (inactive)	26.5 µM (inactive)	17.5 µM (inactive)	25.4 µM (inactive)	31.2 µM (inactive)
CC1(C)OC[C@@H](/C=C\CCO[Si](c2ccccc2)(c2ccccc2)C(C)(C)C)N1C(=O)c1ccccc1	2.86 µM (inactive)	3.79 µM (inactive)	7.5 µM (inactive)	2.51 µM (inactive)	12.3 µM (inactive)	14.4 µM (inactive)	13.6 µM (inactive)	25.4 µM (inactive)	8.32 µM (inactive)	9.4 µM (inactive)	9.91 µM (inactive)	–	18.3 µM (inactive)	7.46 µM (inactive)	4.07 µM (inactive)	2.51 µM (inactive)	14.5 µM (inactive)	7.94 µM (inactive)	7.96 µM (inactive)	2.79 µM (inactive)
CC(=O)Oc1ccn2nc(C)c(Br)c2c1Br	–	21.5 µM (inactive)	17.6 µM (inactive)	17.5 µM (inactive)	17.6 µM (inactive)	19.4 µM (inactive)	18.4 µM (inactive)	44.4 µM (inactive)	19.4 µM (inactive)	2.88 µM (inactive)	17.7 µM (inactive)	22.4 µM (inactive)	21.2 µM (inactive)	20.7 µM (inactive)	18.4 µM (inactive)	29 µM (inactive)	30.5 µM (inactive)	> 43.9 µM (inactive)	33.7 µM (inactive)	40.9 µM (inactive)
CCCN(C(=O)c1ccccc1)C(C#N)c1ccc(C(C#N)N(CCC)C(=O)c2ccccc2)cc1 (stereo not drawn)	> 100 µM (inactive)	–	> 100 µM (inactive)	92.5 µM (inactive)	84.1 µM (inactive)	16.3 µM (inactive)	> 100 µM (inactive)	27.1 µM (inactive)	> 100 µM (inactive)	> 100 µM (inactive)	45 µM (inactive)	> 100 µM (inactive)	28.5 µM (inactive)	> 100 µM (inactive)	68.9 µM (inactive)	> 100 µM (inactive)	> 100 µM (inactive)	20 µM (inactive)	> 100 µM (inactive)	> 100 µM (inactive)
O=C(C/N=C(\CN(c1ccccc1)c1ccccc1)Oc1c(Cl)cc(Cl)cc1Cl)n1cnc2ccccc21	44.6 µM (inactive)	> 100 µM (inactive)	32.5 µM (inactive)	76 µM (inactive)	78.2 µM (inactive)	59.6 µM (inactive)	–	> 100 µM (inactive)	> 100 µM (inactive)	–	32.3 µM (inactive)	52.6 µM (inactive)	> 100 µM (inactive)	71.6 µM (inactive)	27.5 µM (inactive)	32.7 µM (inactive)	81.7 µM (inactive)	19.5 µM (inactive)	96.6 µM (inactive)	33.9 µM (inactive)
CN1CC(S(=O)(=O)c2ccccc2)CC(S(=O)(=O)c2ccccc2)C1c1ccccc1 (stereo not drawn)	–	16.2 µM (inactive)	12.3 µM (inactive)	14.6 µM (inactive)	12.5 µM (inactive)	18.2 µM (inactive)	11.7 µM (inactive)	20 µM (inactive)	13.6 µM (inactive)	10.8 µM (inactive)	14.3 µM (inactive)	13.6 µM (inactive)	4.86 µM (inactive)	15.9 µM (inactive)	12.1 µM (inactive)	8.81 µM (inactive)	8.3 µM (inactive)	21.2 µM (inactive)	13.2 µM (inactive)	6.22 µM (inactive)
CCc1nc2ccc(NCCN(C)C)c3c(=O)c4ccccc4n1c23	0.752 µM (active)	0.23 µM (active)	0.979 µM (active)	–	0.417 µM (active)	0.592 µM (active)	0.6 µM (active)	0.796 µM (active)	0.307 µM (active)	1.56 µM (inactive)	2.14 µM (inactive)	1.61 µM (inactive)	1.67 µM (inactive)	0.762 µM (active)	0.8 µM (active)	1.75 µM (inactive)	0.305 µM (active)	1.07 µM (active)	0.701 µM (active)	0.193 µM (active)
